Reference: patent publication US20100264359A1, “BIOCIDAL MIXTURES” (LANXESS DEUTSCHLAND GMBH, priority 2007, published 2010)

Key:
[1] = tested on: Bacteria; assay: Preservation of a cooling lubricant emulsion, repeated weekly contamination with bacteria mixture; assay type: cell-based; conditions: maximum of 10 weeks; for Number of weeks in which the growth of microorganisms lay beneath the limiting values (bacteria <10^6 CFU/g): 0.05% (=500 ppm) BIT in cooling lubricant emulsion; for Number of weeks in which the growth of microorganisms remained below the limiting values (bacteria <10^6 CFU/g): 0.18% (=1800 ppm) OPP in cooling lubricant emulsion
Method: (§1) For this purpose, preserved samples of the cooling lubricant emulsion were repeatedly exposed in a weekly cycle to microbiological contamination with the following microorganisms:
(§2) The bacteria mixture was added in each case separately from the yeasts/molds. The maximum experimental time was 10 weeks (=10 contaminations/inoculation cycles), provided that the weekly cell count determination (in each case 7 days after the contamination) was kept within the following limiting values:
(§3) bacteria <10^6 CFU/g yeasts/molds <10^3-4 CFU/g
(§4) The experiment was terminated when said values were exceeded twice in succession.

[2] = tested on: Molds; assay: Preservation of a cooling lubricant emulsion, repeated weekly contamination with molds; assay type: cell-based, Acremonium strictum, Fusarium solani, Geotrichum candidum; conditions: maximum of 10 weeks; for Number of weeks in which the growth of microorganisms lay beneath the limiting values (molds <10^3-4 CFU/g): 0.05% (=500 ppm) BIT in cooling lubricant emulsion; for Number of weeks in which the growth of microorganisms remained below the limiting values (molds <10^3-4 CFU/g): 0.18% (=1800 ppm) OPP in cooling lubricant emulsion
Method: as §1, §2, §3, §4

[3] = tested on: Yeasts; assay: Preservation of a cooling lubricant emulsion, repeated weekly contamination with yeasts; assay type: cell-based, Rhodotorula rubra; conditions: maximum of 10 weeks; for Number of weeks in which the growth of microorganisms lay beneath the limiting values (yeasts <10^3-4 CFU/g): 0.05% (=500 ppm) BIT in cooling lubricant emulsion; for Number of weeks in which the growth of microorganisms remained below the limiting values (yeasts <10^3-4 CFU/g): 0.18% (=1800 ppm) OPP in cooling lubricant emulsion
Method: as §1, §2, §3, §4

| Structure (SMILES) | Number of weeks in which the growth of microorganisms lay beneath the limiting values (bacteria <10^6 CFU/g) [1] [week weeks] | Number of weeks in which the growth of microorganisms lay beneath the limiting values (bacteria <10^6 CFU/g) ([1]; listed as benzisothiazolinone) | Number of weeks in which the growth of microorganisms lay beneath the limiting values (molds <10^3-4 CFU/g) [2] [week weeks] | Number of weeks in which the growth of microorganisms lay beneath the limiting values (molds <10^3-4 CFU/g) ([2]; listed as benzisothiazolinone) | Number of weeks in which the growth of microorganisms lay beneath the limiting values (yeasts <10^3-4 CFU/g) [3] [weeks] | Number of weeks in which the growth of microorganisms lay beneath the limiting values (yeasts <10^3-4 CFU/g) ([3]; listed as benzisothiazolinone) | Number of weeks in which the growth of microorganisms remained below the limiting values (bacteria <10^6 CFU/g) [1] [weeks] | Number of weeks in which the growth of microorganisms remained below the limiting values (bacteria <10^6 CFU/g) ([1]; listed as o-phenylphenol) | Number of weeks in which the growth of microorganisms remained below the limiting values (molds <10^3-4 CFU/g) [2] [weeks] | Number of weeks in which the growth of microorganisms remained below the limiting values (molds <10^3-4 CFU/g) ([2]; listed as o-phenylphenol) | Number of weeks in which the growth of microorganisms remained below the limiting values (yeasts <10^3-4 CFU/g) [3] [weeks] | Number of weeks in which the growth of microorganisms remained below the limiting values (yeasts <10^3-4 CFU/g) ([3]; listed as o-phenylphenol) |
| --- | --- | --- | --- | --- | --- | --- | --- | --- | --- | --- | --- | --- |
| O=c1[nH]sc2ccccc12 [BIT, benzisothiazolinone] | 1 | 1 week (of a maximum of 10 weeks) | 1 | 1 week (of a maximum of 10 weeks) | 7 | 7 weeks (of a maximum of 10 weeks) | – | – | – | – | – | – |
| Oc1ccccc1-c1ccccc1 [OPP, o-phenylphenol] | – | – | – | – | – | – | 2 | 2 weeks (of a maximum of 10 weeks) | 10 | 10 weeks (of a maximum of 10 weeks) | 10 | 10 weeks (of a maximum of 10 weeks) |
